These results are taken from ChEMBL document CHEMBL3632569, “Chemical constituents from Hericium erinaceus and their ability to stimulate NGF-mediated neurite outgrowth on PC12 cells” (Bioorg Med Chem Lett, 2015).

Calls of active or inactive are those of the source. The calls are words filed in the database; no cut-off is given here.

Series [1] in a line: Cytotoxicity against rat PC12 cells assessed as cell viability at 10 and 20 uM after 72 hrs by SRB assay. The format is cell-based. The following applies: pc-12, 72 h. (The SRB assay estimates cell density from bound dye.)
Series [2] has as its system PC-12. As to the kind of experiment: Effect on neurite outgrowth in rat PC12 cells at 10 and 20 uM after 48 hrs by inverted microscopic analysis. It counts as functional, cell-based.
Series [3] has as its system PC-12. As to the kind of experiment: Stimulation of NGF-mediated neurite outgrowth in rat PC12 cells at 10 and 20 uM after 48 hrs by inverted microscopic analysis. It counts as functional, cell-based.
Series [4] has as its system PC-12. The experiment in a line: Stimulation of NGF-mediated neurite outgrowth in rat PC12 cells at 20 uM after 48 hrs by inverted microscopic analysis (reference value: 15.32 +/- 0.25%). The format is functional.

For `CC(C)[C@@H](C)/C=C/[C@@H](C)[C@H]1CC[C@@H]2[C@]1(C)CC[C@H]1[C@]23C=C[C@]2(C[C@@H](O)CC[C@]12C)OO3` [ERGOSTEROL PEROXIDE], the Activity entry in series [1] is recorded as “Non-toxic”. Moreover, in the series on PC-12 [2], the outcome was inactive. Further, the outcome with PC-12 [3] was Active.
Consider `C/C(=C\CC(O)[C@@H](C)[C@H]1CC[C@@]2(C)C3=C(CC[C@]12C)[C@@]1(C)CC[C@H](O)C(C)(C)C1CC3)C(=O)O` (stereo partly drawn), for which, in series [1], the Activity entry is on record as “Non-toxic”. Besides, the result with PC-12 [2] was inactive.
`C=C(C)[C@@H]1CC[C@]2(CO)CC[C@]3(C)[C@H](CC[C@@H]4[C@@]5(C)CC[C@H](O)C(C)(C)[C@@H]5CC[C@]43C)[C@@H]12` [BETULIN]: in series [1], the Activity entry is on record as “Non-toxic”. In addition, the result in the series on PC-12 [2] was inactive.
In the case of `COc1cc2c(c3c1CC[C@](C)(CC(=O)C=C(C)C)O3)C(=O)OC2`, the Activity result in series [1] is recorded as “Non-toxic”; in the series on PC-12 [4] it was 21.79%. Also, the outcome in the series with PC-12 [2] was inactive. The outcome in the series with PC-12 [3] was Active.
As to `CCCCCCCCCCCCCCCCCCCC(O)C(=O)N[C@@H](CO)C(O)[C@H](O)CCCCCCCCCCCCCCCCC` (stereo partly drawn), the Activity result in series [1] is reported as “Non-toxic”. Besides, the result in the series with PC-12 [2] was inactive.
In the case of `C[C@H](CC[C@H](O)C(C)(C)O)[C@H]1CC[C@@]2(C)C3=C(CC[C@]12C)[C@@]1(C)CC[C@H](O)C(C)(C)C1CC3` (stereo partly drawn), the Activity entry in series [1] is listed as “Non-toxic”. Moreover, the result in the series with PC-12 [2] was inactive.
For the compound `COc1cc2c(c3c1CCC(C)(CC(=O)C=C(C)C)O3)C(=O)OC2` (racemic), the results for the Activity entry (in series [1]; with PC-12 [4]) were “Non-toxic” and 19.96%, respectively. In addition, in the series on PC-12 [2], the outcome was inactive. In addition, the result in the series with PC-12 [3] was Active.
`CC(C)[C@@H](C)/C=C/[C@@H](C)[C@H]1CC[C@H]2C3=CC(=O)[C@@]4(O)C[C@@H](O)CC[C@]4(C)[C@@]3(O)CC[C@]12C`: in series [1], the Activity result is recorded as “Non-toxic”. In addition, the outcome with PC-12 [2] was inactive. In the series on PC-12 [3], the outcome was Active.
Regarding `CC1(C)CC[C@]2(C(=O)O)CC[C@]3(C)C(=CC[C@@H]4[C@@]5(C)CC[C@H](O)C(C)(C)[C@@H]5CC[C@]43C)[C@@H]2C1` [OLEANOLIC_ACID], in series [1], the Activity entry is given as “Non-toxic”. Moreover, the result with PC-12 [2] was inactive.
For `C[C@H]1[C@H](C)CC[C@]2(C(=O)O)CC[C@]3(C)C(=CC[C@@H]4[C@@]5(C)CC[C@H](O)C(C)(C)[C@@H]5CC[C@]43C)[C@H]12` [URSOLIC ACID], in that order: “Non-toxic” and “inactive”.
As for `COc1cc2c(c3c1CC[C@@](C)(CC(=O)C=C(C)C)O3)C(=O)OC2`, the values for the Activity result (in series [1]; with PC-12 [4]) were “Non-toxic” and 17.85%, respectively. In the series with PC-12 [2], the result was inactive. Further, the result in the series on PC-12 [3] was Active.
On to `CC(C)[C@@H](C)/C=C/[C@@H](C)[C@H]1CC[C@H]2C3=C[C@@H](O)[C@@]4(O)C[C@@H](O)CC[C@]4(C)[C@H]3CC[C@]12C` [CEREVISTEROL], for which the Activity result in series [1] is “Non-toxic”. Besides, in the series on PC-12 [2], the outcome was inactive. In addition, the result in the series with PC-12 [3] was Active.
